Experiments:
[1] = test system: A549 cells; experiment: Sphinganine in cell lysates by LC-MS/MS after GlyH-101; format: cell-based; conditions: GlyH-101 (50 μM), A549 lung epithelial cell line; FIG. 6B
Method: (§1) GlyH-101 (50 μM) was added to culture media of cystic fibrosis tracheal cells, non-cystic fibrosis tracheal cells or A549 cells (a lung epithelial cell line).
(§2) Sphinganine, an intermediate of de-novo sphingolipid synthesis, was quantified in cell lysates by LC-MS/MS.

[2] = test system: non-cystic fibrosis tracheal cells; experiment: as above; format: cell-based; conditions: GlyH-101 (50 μM) in culture media, non-CF airway epithelial cells; FIG. 6A
Method: as §1, §2

[3] = test system: cystic fibrosis tracheal cells; experiment: as above; format: cell-based, human; conditions: GlyH-101 (50 μM) in culture medium, cells from the trachea of cystic fibrosis patients; FIG. 6A
Method: as §1, §2

[4] = target: T1, CFTR (Mus musculus, UniProt P26361); experiment: Myograph contractile response of bronchial rings from Sptlc2+/- or Sptlc2+/+ mice with GlyH-101 in bath; conditions: 2 hr in bath, methacholine (10 mM), FIG. 6C
T1 construct: administered directly to the respiratory tract; from tissue; host or cells: live Sptlc2+/+ and Sptlc2+/- mice (airways)
T1 sequence (P26361 whole entry): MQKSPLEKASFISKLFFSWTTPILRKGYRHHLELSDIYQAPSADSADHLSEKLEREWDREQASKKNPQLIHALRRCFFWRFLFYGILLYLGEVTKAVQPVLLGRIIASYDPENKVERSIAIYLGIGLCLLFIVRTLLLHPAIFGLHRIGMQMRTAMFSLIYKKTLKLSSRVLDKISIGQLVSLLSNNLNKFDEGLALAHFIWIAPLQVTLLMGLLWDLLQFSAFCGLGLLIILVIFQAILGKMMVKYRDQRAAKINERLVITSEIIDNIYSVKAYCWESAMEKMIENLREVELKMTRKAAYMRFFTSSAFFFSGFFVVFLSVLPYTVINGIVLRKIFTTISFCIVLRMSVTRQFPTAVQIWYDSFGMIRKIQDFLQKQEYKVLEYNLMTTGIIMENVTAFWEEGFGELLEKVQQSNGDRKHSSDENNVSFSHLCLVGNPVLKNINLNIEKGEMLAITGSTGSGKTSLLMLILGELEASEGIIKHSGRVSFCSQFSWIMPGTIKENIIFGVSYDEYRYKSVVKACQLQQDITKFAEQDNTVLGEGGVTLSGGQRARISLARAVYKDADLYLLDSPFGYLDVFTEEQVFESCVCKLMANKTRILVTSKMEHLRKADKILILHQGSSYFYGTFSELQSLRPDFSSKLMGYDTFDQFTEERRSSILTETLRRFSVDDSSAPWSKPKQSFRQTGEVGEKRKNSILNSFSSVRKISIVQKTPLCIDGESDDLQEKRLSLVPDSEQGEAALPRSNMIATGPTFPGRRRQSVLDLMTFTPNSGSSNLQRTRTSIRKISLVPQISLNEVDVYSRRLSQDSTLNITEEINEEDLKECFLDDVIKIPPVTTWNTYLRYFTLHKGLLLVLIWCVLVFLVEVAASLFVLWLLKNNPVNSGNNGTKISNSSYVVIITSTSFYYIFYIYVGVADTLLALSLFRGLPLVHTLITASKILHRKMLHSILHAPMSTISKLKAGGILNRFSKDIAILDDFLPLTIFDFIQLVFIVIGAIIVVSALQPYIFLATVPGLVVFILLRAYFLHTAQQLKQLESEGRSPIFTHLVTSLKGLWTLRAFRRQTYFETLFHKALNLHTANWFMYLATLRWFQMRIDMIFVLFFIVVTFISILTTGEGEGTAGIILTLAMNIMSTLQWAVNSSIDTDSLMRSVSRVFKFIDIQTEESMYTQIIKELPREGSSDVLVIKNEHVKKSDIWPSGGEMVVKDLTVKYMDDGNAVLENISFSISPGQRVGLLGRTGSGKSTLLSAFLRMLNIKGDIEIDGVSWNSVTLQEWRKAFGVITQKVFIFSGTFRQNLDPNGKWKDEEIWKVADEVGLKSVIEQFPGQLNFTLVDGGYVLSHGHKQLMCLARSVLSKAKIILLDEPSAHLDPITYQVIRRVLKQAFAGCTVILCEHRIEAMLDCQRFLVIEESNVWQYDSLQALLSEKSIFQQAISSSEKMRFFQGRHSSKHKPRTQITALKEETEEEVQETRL
Method: In another experiment, bronchial rings were isolated from Sptlc2^+/− or Sptlc2^+/+ mice and mounted in a myograph. CFTR inhibitor GlyH-101 or the solvent DMSO (control) were added to the bath solution. After 2 hr contractile responses of the rings stimulated with methacholine (10 mM) were determined.

[5] = target: T1, CFTR; experiment: Airway resistance to methacholine after intranasal GlyH-101 in Sptlc2+/+ and Sptlc2+/- mice; format: in vivo; conditions: GlyH-101 (5 μg) intranasally, after 3 h
Method: Mice were anaesthetized with pentobarbital (100 mg/kg; American Pharmaceutical Partners, Los Angeles, Calif.), tracheostomized and mechanically ventilated at a rate of 150 breaths/min, a tidal volume of 10 ml/kg and positive end-expiratory pressure of 2-3 cm H2O using a computer-controlled animal ventilator (Sireq, Montreal, Canada). Three perturbations were used to assess baseline respiratory mechanics and the effects were analyzed using the Flexivent software (Scireq): • (1) Static compliance was determined using the Salazar-Knowles equation (Colebatch et al., J Appl Physiol 46:387-393 (1971) to the plateau pressure measurements obtained between total lung capacity and functional residual capacity; • (2) Single-frequency forced oscillations were applied to determine tissue resistance (R), elastance (E) and dynamic compliance (C) using a single compartment model; • (3) Broadband forced oscillations were applied to determine Newtonian (airway) resistance (Rn), tissue damping (G) and tissue elastance using a constant phase model. Rn and G were also assessed following increasing doses of methacholine (3.125, 12.5 and 50 mg/ml). […]

[6] = test system: Human bronchial epithelial cells; experiment: Sphingolipids by mass spectrometry in human bronchial epithelial cells; format: cell-based; conditions: fenretinide (10 μM) for 3 hours; FIG. 7
Method: FIG. 7 illustrates that fenretinide increases metabolites of de-novo sphingolipid synthesis. Human bronchial epithelial cells were incubated with myriocin (1 μM) or fenretinide (10 μM) for 3 h in serum free medium supplemented with fatty acid-free bovine serum albumin (0.1%). Cell lysates were analyzed by mass spectrometry. The sums (mean+SEM) of all dihydroceramides are shown as a reflection of the activity of the de-novo sphingolipid synthesis pathway.
(§3) Human bronchial epithelial cells were incubated with either myriocin (1 μM) or fenretinide (10 μM) for 3 hours. The amounts of sphingolipids were then quantified by mass spectrometry.

[7] = test system: Human bronchial epithelial cells; experiment: Viability of human bronchial epithelial cells; format: cell-based; conditions: myriocin (1 μM) or fenretinide (10 μM) for 3 hours
Method: as §3
The viability of the cells was not affected by fenretinide or myriocin. Fenretinide can induce cell death at doses as low as 5 μM in cancer cells (Wang et al. Cancer Res 61:5102-5 (2001)), but toxicity is usually not seen in doses up to 12 μM in non-malignant cells (Li et al., Cancer Letters 284:175-81 (2009); O'Donnell et al., Leukemia 16:902-10 (2002)). Accordingly, low doses of fenretinide may effectively alleviate bronchial hyper reactivity.

[8] = test system: cancer cells; conditions: cancer cells (Wang et al. 2001); cited from earlier work
[9] = test system: non-malignant cells; conditions: non-malignant cells (Li et al. 2009; O'Donnell et al. 2002); cited from earlier work

| contractile response of bronchial rings upon methacholine ([4]; rings from Spt-deficient mice) | contractile response of bronchial rings ([4]; rings from wild type mice (Sptlc+/+)) | airway resistance after methacholine ([5]; Sptlc2+/- mice, FIG. 6E) | bronchial reactivity after methacholine ([5]; control Sptlc2+/+ mice, FIG. 6D) | SMILES | sphinganine level [1] | sphinganine level [2] | sphinganine level [3] | sum of all dihydroceramides [6] | viability of the cells [7] | doses that can induce cell death [8] | doses at which toxicity is usually not seen [9] |
| --- | --- | --- | --- | --- | --- | --- | --- | --- | --- | --- | --- |
| decreased | increased contractile response | alleviated | no effect | O=C(CNc1ccc2ccccc2c1)N/N=C/c1cc(Br)c(O)c(Br)c1O [GlyH-101, (Naphthalen-2-ylamino)-acetic acid (3,5-dibromo-2,4,-dihydroxybenzylidene)-hydrazide] | increases | increases | not altered | – | – | – | – |
| – | – | – | – | CC1=C(/C=C/C(C)=C/C=C/C(C)=C/C(=O)Nc2ccc(O)cc2)C(C)(C)CCC1 [fenretinide, N-(4-hydroxyphenyl)retinamide] | – | – | – | increased | not affected | ≥ 5 µM | up to 12 μM |
